Laboratory results taken from patent US11040119B2, “Compositions and methods for assessing neuromuscular function” (Biogen MA Inc., priority 2013, dated 2021).
Entries after “also recorded” stand apart in the source; their conditions may differ.

Assays:
[1] = in vivo; cited from earlier work
[2] = Simultaneous dual-radiotracer SPECT/CT imaging of 99mTc-Sestamibi and 201Tl-Cl uptake; assay type: in vivo, mouse and rat; details: FIG. 1; for retention in muscle: i.v. single injection of both agents, imaging 3 hours later
Procedure: This example describes an imaging approach for assessing skeletal muscle health by administering ^99mTc-Sestamibi and ^201Tl—Cl both in a single intravenous injection and then simultaneously detecting their accumulation into skeletal muscle through SPECT imaging via distinct radiation energy windows, which are specific for each isotope. Through this approach, each imaging agent alone, as well as the change in uptake of one agent relative to the other, was measured, permitting evaluation of multiple physiological processes in muscle simultaneously.
Imaging agents (^99mTc-Sestamibi and ^201Tl-Chloride) were ordered from commercial radiopharmacies for calibration and delivery on each day of SPECT imaging. Imaging agents were administered by intravenous injection in the lateral tail-vein. Animals were returned to their cages after injection for the distribution period or placed directly on the imaging system for SPECT acquisition, depending on the imaging protocol and desired time-points. For the imaging session, subjects were anesthetized using a gas mixture of isoflurane and oxygen. In-vivo SPECT and CT data were acquired using the NanoSPECT/CT® (Bioscan, Washington, D.C.), a dual modality imaging system that combines a 4-headed SPECT camera with a computed tomography (CT) acquisition system on the same axis of rotation. During imaging, subjects were placed on a heated bed with integrated anesthesia delivery and bed heating. The animals' body temperatures were maintained at 36 to 37° C. for the duration of image acquisition. Each imaging time-point included three scans: a planar x-ray scout scan, an x-ray CT scan for anatomical reference (6-9 min., 45-65 KVp, 180 angular projections per FOV), and a SPECT scan (20-90 min., 20 angular projections per FOV). SPECT data were reconstructed using the HiSPECT processing module (Scivis GmbH, Gottingen, Germany). […] Uptake and concentration of radiotracer were quantified in select regions-of-interest (ROI) using the VivoQuant™ post-processing suite. […]

[3] = prepared radiopharmaceutical; cited from earlier work
skeletal muscle [4] = test: Effect of neuromuscular stimulation with edrophonium on 99mTc-Sestamibi and 201Tl-Cl uptake into muscle (SPECT/CT); assay type: in vivo, rats
Procedure: In order to assess the action of neuromuscular stimulation on ^99mTc-Sestamibi and ^201Tl—Cl uptake into muscle we used the acetylcholinesterase inhibitor edrophonium (0.2 mg/kg, i.v.) to enhance ongoing neuromuscular synaptic transmission. We used three different cohorts of animals (n=3). In one cohort we examined baseline neuromuscular activity by giving the ^99mTc-Sestamibi and ^201Tl—Cl (listed as m/t in figure) at time zero and acquiring images under brief isoflurane anesthesia at 30 minutes post injection. Another cohort received edrophonium injection immediately following the m/t dosing but prior to the imaging under anesthesia. The last cohort received the edrophonium 30 minutes prior to the m/t dosing. This approach standardized the anesthesia and imaging phase of the experiment while making the edrophonium dose timing the only variable.
FIG. 4 is an exemplary schematic diagram of an experiment assessing the impact of edrophonium on the pharmacokinetics of ^99mTc-Sestamibi and ^201Tl—Cl. ^99mTc-Sestamibi and ^201Tl—Cl were imaged in three cohorts of rats (n of 3 each): control/baseline; prior to injection of 0.2 mg/kg of edrophonium; following injection of 0.2 mg/kg of edrophonium. Whole body SPECT/CT images were collected 30 minutes post-injection of the mixed ^99mTc-Sestamibi and ^201Tl—Cl dose. The drugs' gamma emissions of the radioisotopes (^99mTc and ^201Tl) were collected in separate energy windows, permitting simultaneous imaging of the relevant radiopharmaceuticals. […] Thallium uptake was increased by the introduction of edrophonium in control rats as indicated qualitatively by brighter muscle uptake on a common scale.
However, either pre- or post-m/t, edrophonium dosing had no effect on ^99mTc-Sestamibi uptake into muscle. FIG. 6 depicts comparison of radiopharmaceutical uptake in skeletal muscle between two imaging paradigms. The ‘+’ represents subjects that received an edrophonium injection (i.v.) immediately after radiotracer administration. […] All other aspects of data collection were identical between the ‘+’ and ‘−’ scenarios. Quantitative units of radioactivity per volume was expressed as uptake: percent injected dose (% ID), activity (mCi, kBq).

skeletal muscle [5] = test: Effect of continuous isoflurane anesthesia on muscle uptake of the two radiopharmaceutical agents (SPECT); assay type: in vivo; details: continuous anesthesia through 30 minute uptake period vs awake uptake period; right and left legs; FIG. 3
Procedure: Imaging agents (^99mTc-Sestamibi and ^201Tl-Chloride) were ordered from commercial radiopharmacies for calibration and delivery on each day of SPECT imaging. Imaging agents were administered by intravenous injection in the lateral tail-vein. Animals were returned to their cages after injection for the distribution period or placed directly on the imaging system for SPECT acquisition, depending on the imaging protocol and desired time-points. For the imaging session, subjects were anesthetized using a gas mixture of isoflurane and oxygen. In-vivo SPECT and CT data were acquired using the NanoSPECT/CT® (Bioscan, Washington, D.C.), a dual modality imaging system that combines a 4-headed SPECT camera with a computed tomography (CT) acquisition system on the same axis of rotation. During imaging, subjects were placed on a heated bed with integrated anesthesia delivery and bed heating. The animals' body temperatures were maintained at 36 to 37° C. for the duration of image acquisition. […] Uptake and concentration of radiotracer were quantified in select regions-of-interest (ROI) using the VivoQuant™ post-processing suite.
This need for imaging under anesthesia in animals is not necessary in human imaging studies. […] Quantitative units of radioactivity per volume was expressed as uptake: percent injected dose (% ID), activity (mCi, kBq). […]

[6] = edrophonium i.v. immediately after radiotracer administration vs none, FIG. 6

Row | Molecule | biological half-life [1] | extraction efficiency [1] | retention in muscle [2] | stability [3] | further results
1 | [C-]#[N+]CC(C)(C)OC.[C-]#[N+]CC(C)(C)OC.[C-]#[N+]CC(C)(C)OC.[C-]#[N+]CC(C)(C)OC.[C-]#[N+]CC(C)(C)OC.[C-]#[N+]CC(C)(C)OC.[Tc] [^99mTc-Sestamibi] | long | high | consistent retention | 6 h | 
2 | [Cl][201Tl] [^201Tl—Cl, ^201Thallium-Chloride] |  |  | consistent retention |  | muscle accumulation, extent relative to 99mTc-Sestamibi ([2]; i.v., imaging 3 hours post-injection): more widespread
3 | CC[N+](C)(C)c1cccc(O)c1 [edrophonium] |  |  |  |  | 99mTc-Sestamibi uptake into muscle (skeletal muscle [4]; edrophonium 0.2 mg/kg i.v., either pre- or post-m/t dosing, images 30 minutes post-injection): no effect; 201Tl uptake into muscle (skeletal muscle [4]; edrophonium 0.2 mg/kg i.v., pre- or post-m/t dosing vs baseline, images 30 minutes post-injection, FIG. 5): dramatically enhanced; also recorded: increased; 99mTc-Sestamibi uptake in skeletal muscle, statistical evaluation (skeletal muscle [4]; [6]): not; 201Tl uptake in skeletal muscle, statistical evaluation (skeletal muscle [4]; [6]): highly significant edrophonium effect
4 | FC(F)OC(Cl)C(F)(F)F (centres unmarked) [isoflurane] |  |  |  |  | accumulation of both agents (99mTc-Sestamibi and 201Tl-Cl) into muscle (skeletal muscle [5]): inhibited
5 | ^99mTc-Teboroxime | short | high |  | 6 h | 
